Results: ChEMBL document CHEMBL3885881, “DrugMatrix”

Species: Rattus norvegicus
Experiment: DrugMatrix - Regimen: Daily Repeat
Format: toxicity, organism-based, Sprague-Dawley
Parameters: regimen Daily Repeat, gender Male, age 6-8 weeks
Conditions: in vivo, iv, 31 mg/kg, dose level Low, vehicle 100 % SALINE; for ABSOLUTE BASOPHIL / ABSOLUTE EOSINOPHIL / ABSOLUTE LYMPHOCYTE / ABSOLUTE MONOCYTE / ABSOLUTE SEGMENTED NEUTROPHIL / BASOPHIL / EOSINOPHIL / ERYTHROCYTE COUNT / HEMATOCRIT / HEMOGLOBIN / LEUKOCYTE COUNT / LYMPHOCYTE / MEAN CORPUSCULAR HEMOGLOBIN / MEAN CORPUSCULAR HEMOGLOBIN CONCENTRATION / MEAN CORPUSCULAR VOLUME / MONOCYTE / NEUTROPHIL / NUCLEATED RED BLOOD CELLS / PLATELET COUNT: tissue Blood; for ALANINE AMINOTRANSFERASE / ALBUMIN / ALKALINE PHOSPHATASE / ASPARTATE AMINOTRANSFERASE / BLOOD UREA NITROGEN / CARBON DIOXIDE / CHLORIDE / CHOLESTEROL / CREATINE PHOSPHOKINASE / CREATININE / GLUCOSE / LACTATE DEHYDROGENASE / LIPASE / PHOSPHORUS / POTASSIUM / SODIUM / TOTAL BILIRUBIN / TOTAL PROTEIN / URIC ACID: tissue Plasma

Cc1cn[nH]c1 [FOMEPIZOLE]
ABSOLUTE BASOPHIL (72 h, time 3 day): 0 CELLS/uL
ABSOLUTE EOSINOPHIL (72 h, time 3 day): 41 CELLS/uL
ABSOLUTE LYMPHOCYTE (72 h, time 3 day): 12783.33 CELLS/uL
ABSOLUTE MONOCYTE (72 h, time 3 day): 137 CELLS/uL
ABSOLUTE SEGMENTED NEUTROPHIL (72 h, time 3 day): 738.67 CELLS/uL
BASOPHIL (72 h, time 3 day): 0%
EOSINOPHIL (72 h, time 3 day): 0.33%
ERYTHROCYTE COUNT (72 h, time 3 day): 5.82 x10E6/uL
HEMATOCRIT (72 h, time 3 day): 35.33%
HEMOGLOBIN (72 h, time 3 day): 13.87 G/DL
LEUKOCYTE COUNT (72 h, time 3 day): 13.7 x10E3/uL
LYMPHOCYTE (72 h, time 3 day): 93.33%
MEAN CORPUSCULAR HEMOGLOBIN (72 h, time 3 day): 23.83 pg
MEAN CORPUSCULAR HEMOGLOBIN CONCENTRATION (72 h, time 3 day): 39.27 G/DL
MEAN CORPUSCULAR VOLUME (72 h, time 3 day): 60.67 fL
MONOCYTE (72 h, time 3 day): 1%
NEUTROPHIL (72 h, time 3 day): 5.33%
NUCLEATED RED BLOOD CELLS (72 h, time 3 day): 0 /100WBC
PLATELET COUNT (72 h, time 3 day): 1326.67 x10E3/uL
ALANINE AMINOTRANSFERASE (72 h, time 3 day): 46.33 u/L
ALBUMIN (72 h, time 3 day): 4.27 G/DL
ALKALINE PHOSPHATASE (72 h, time 3 day): 429.67 u/L
ASPARTATE AMINOTRANSFERASE (72 h, time 3 day): 79 u/L
BLOOD UREA NITROGEN (72 h, time 3 day): 14.67 mg/dL
CARBON DIOXIDE (72 h, time 3 day): 23.67 mmol/L
CHLORIDE (72 h, time 3 day): 103.67 MEQ/L
CHOLESTEROL (72 h, time 3 day): 67.67 mg/dL
CREATINE PHOSPHOKINASE (72 h, time 3 day): 240.33 u/L
CREATININE (72 h, time 3 day): 0.15 mg/dL
GLUCOSE (72 h, time 3 day): 166.33 mg/dL
LACTATE DEHYDROGENASE (72 h, time 3 day): 139.67 u/L
LIPASE (72 h, time 3 day): 9.33 u/L
PHOSPHORUS (72 h, time 3 day): 13.53 mg/dL
POTASSIUM (72 h, time 3 day): 6.4 MEQ/L
SODIUM (72 h, time 3 day): 147.03 MEQ/L
TOTAL BILIRUBIN (72 h, time 3 day): 0.2 mg/dL
TOTAL PROTEIN (72 h, time 3 day): 5.77 G/DL
URIC ACID (72 h, time 3 day): 1.67 mg/dL
ABSOLUTE BASOPHIL (120 h, time 5 day): 0 CELLS/uL
ABSOLUTE EOSINOPHIL (120 h, time 5 day): 0 CELLS/uL
ABSOLUTE LYMPHOCYTE (120 h, time 5 day): 17243.67 CELLS/uL
ABSOLUTE MONOCYTE (120 h, time 5 day): 226 CELLS/uL
ABSOLUTE SEGMENTED NEUTROPHIL (120 h, time 5 day): 1697 CELLS/uL
BASOPHIL (120 h, time 5 day): 0%
EOSINOPHIL (120 h, time 5 day): 0%
ERYTHROCYTE COUNT (120 h, time 5 day): 5.34 x10E6/uL
HEMATOCRIT (120 h, time 5 day): 34.37%
HEMOGLOBIN (120 h, time 5 day): 13.8 G/DL
LEUKOCYTE COUNT (120 h, time 5 day): 19.17 x10E3/uL
LYMPHOCYTE (120 h, time 5 day): 89.67%
MEAN CORPUSCULAR HEMOGLOBIN (120 h, time 5 day): 25.9 pg
MEAN CORPUSCULAR HEMOGLOBIN CONCENTRATION (120 h, time 5 day): 40.17 G/DL
MEAN CORPUSCULAR VOLUME (120 h, time 5 day): 64.4 fL
MONOCYTE (120 h, time 5 day): 1.33%
NEUTROPHIL (120 h, time 5 day): 9%
NUCLEATED RED BLOOD CELLS (120 h, time 5 day): 0 /100WBC
PLATELET COUNT (120 h, time 5 day): 1415 x10E3/uL
ALANINE AMINOTRANSFERASE (120 h, time 5 day): 63.33 u/L
ALBUMIN (120 h, time 5 day): 4.27 G/DL
ALKALINE PHOSPHATASE (120 h, time 5 day): 350 u/L
ASPARTATE AMINOTRANSFERASE (120 h, time 5 day): 91 u/L
BLOOD UREA NITROGEN (120 h, time 5 day): 15.33 mg/dL
CARBON DIOXIDE (120 h, time 5 day): 21.67 mmol/L
CHLORIDE (120 h, time 5 day): 103.33 MEQ/L
CHOLESTEROL (120 h, time 5 day): 77 mg/dL
CREATINE PHOSPHOKINASE (120 h, time 5 day): 195 u/L
CREATININE (120 h, time 5 day): 0.2 mg/dL
GLUCOSE (120 h, time 5 day): 155.67 mg/dL
LACTATE DEHYDROGENASE (120 h, time 5 day): 131 u/L
LIPASE (120 h, time 5 day): 10.67 u/L
PHOSPHORUS (120 h, time 5 day): 13.77 mg/dL
POTASSIUM (120 h, time 5 day): 6.85 MEQ/L
SODIUM (120 h, time 5 day): 145.9 MEQ/L
TOTAL BILIRUBIN (120 h, time 5 day): 0.17 mg/dL
TOTAL PROTEIN (120 h, time 5 day): 5.93 G/DL
URIC ACID (120 h, time 5 day): 1.7 mg/dL
